The values that follow come from ChEMBL document CHEMBL4304782, “Antioxidant, Anti-inflammatory, and Neuroprotective Effects of Novel Vinyl Sulfonate Compounds as Nrf2 Activator” (ACS Med Chem Lett, 2019).

This test addresses T1, Nuclear factor erythroid 2-related factor 2 (Homo sapiens, UniProt Q16236).
T1 sequence (Q16236 whole entry): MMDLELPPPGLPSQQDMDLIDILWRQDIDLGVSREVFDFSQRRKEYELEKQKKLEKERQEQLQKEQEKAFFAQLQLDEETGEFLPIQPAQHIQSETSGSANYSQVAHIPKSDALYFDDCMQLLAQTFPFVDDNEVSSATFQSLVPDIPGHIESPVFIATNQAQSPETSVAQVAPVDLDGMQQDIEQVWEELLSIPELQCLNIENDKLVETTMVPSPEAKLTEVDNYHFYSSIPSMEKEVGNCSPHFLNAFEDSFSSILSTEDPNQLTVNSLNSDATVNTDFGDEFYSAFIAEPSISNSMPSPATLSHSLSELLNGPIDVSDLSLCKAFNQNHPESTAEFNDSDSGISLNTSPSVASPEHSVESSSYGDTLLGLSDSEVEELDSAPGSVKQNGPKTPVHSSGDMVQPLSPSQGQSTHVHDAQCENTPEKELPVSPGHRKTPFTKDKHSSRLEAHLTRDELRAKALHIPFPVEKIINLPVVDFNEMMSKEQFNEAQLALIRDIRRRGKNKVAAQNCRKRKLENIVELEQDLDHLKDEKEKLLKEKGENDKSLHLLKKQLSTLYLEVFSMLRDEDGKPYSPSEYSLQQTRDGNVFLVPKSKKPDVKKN
As to the kind of experiment: Activation of ED-tagged Nrf2 in human U2OS cells co-expressing Keap1 assessed as induction of NRF2 translocation to nucleus after 6 hrs by beta-galactosidase based chemiluminescent assay. The test is classed as cell-based.
The term EC50 denotes the concentration at which the effect is half-maximal. As for `COc1ccc(OS(=O)(=O)/C=C/c2ccc(Cl)cc2)cc1`, the EC50 turned out to be 1160 nM.

For the compound `O=S(=O)(/C=C/c1ccccc1)Nc1ccccc1`, the EC50 is over 10000 nM.

Consider `COc1ccccc1NS(=O)(=O)/C=C/c1ccccc1Cl`, for which the EC50 is 6350 nM.

In the case of `COc1ccc(OS(=O)(=O)/C=C/c2ccccc2)cc1`, the EC50 is 1480 nM.

On to `COc1ccccc1OS(=O)(=O)/C=C/c1cccc(Cl)c1`, for which the EC50 stood at 698 nM.

In the case of `COc1cccc(OS(=O)(=O)/C=C/c2ccc(Cl)cc2)c1`, the EC50 came to 1780 nM.

Regarding `COc1cccc(OS(=O)(=O)/C=C/c2ccccc2Cl)c1`, the EC50 came to 165 nM.

As to `COc1ccc(OS(=O)(=O)/C=C/c2ccccc2Cl)cc1`, the EC50 came out at 237 nM.

As for `COc1ccc(OS(=O)(=O)/C=C/c2cccc(Cl)c2)cc1`, the EC50 stood at 948 nM.

Take `COc1cccc(OS(=O)(=O)/C=C/c2cccc(Cl)c2)c1`: the EC50 was found to be 943 nM.

For `O=S(=O)(/C=C/c1ccccc1)Oc1ccccc1`, the EC50 was 1040 nM.

For `COc1ccccc1OS(=O)(=O)/C=C/c1ccc(Cl)cc1`, the EC50 turned out to be 1330 nM.

For the compound `COc1ccc(NS(=O)(=O)/C=C/c2ccccc2Cl)cc1`, the EC50 was over 10000 nM.

Consider `O=S(=O)(/C=C/c1ccccc1Cl)Nc1ccccc1`, for which the EC50 is over 10000 nM.

In the case of `COc1cccc(NS(=O)(=O)/C=C/c2ccccc2Cl)c1`, the EC50 is over 10000 nM.
